# Experimental data taken from patent US10947210B2 (priority 2015, dated 2021).
# Target: HCV RNA-dependent RNA polymerase (NS5B) (Hepatitis C virus genotype 1b (isolate BK) (HCV), UniProt P26663)
# Assay: RNA-Dependent RNA HCV NS5B (polymerase) Assay and IC50 Determination
# Assay type: biochemical
# Conditions: purified HCV NS5B polymerase, polyA:U16 substrate, 32P-UTP incorporation; read-out: IC50
# Procedure: RNA-Dependent RNA HCV NS5B (polymerase) Assay and IC50 Determination.
# The reaction mixtures consisted of 50 mM Hepes-KOH, pH 7.5, 5 mM MgCl2, 5 mM DTT, 2% glycerol, 0.01% Triton® X-100, 0.5 uM polyA:U16 substrate, purified HCV RNA-dependent RNA polymerase, 10 μM UTP, and ^32P-UTP (Perkin Elmer). The reaction mixtures incubated at 30° C. for 60 minutes, and then filtered through Zeta probe membrane (BioRad). The filter was washed with 5×SSC (75 mM sodium citrate, pH 7 and 750 mM NaCl), and the radiolabeled RNA products were quantitated by microbeta (Perkin Elmer). For IC50 determination, different concentrations of inhibitors were added to the polymerase reaction mixtures, and incubated at 37° C. for 60 minutes. IC50 values were determined using GraFit (Erithaus software).
# Table 1 presents IC50 data obtained using the biochemical assay to test representative compounds. Data are presented as follows: “+++” means <0.1 μM; “++” means ≥0.1 μM but <1.0 μM; “+” means ≥1.0 μM.
# Sequence of HCV RNA-dependent RNA polymerase (NS5B) (P26663 2420-3010): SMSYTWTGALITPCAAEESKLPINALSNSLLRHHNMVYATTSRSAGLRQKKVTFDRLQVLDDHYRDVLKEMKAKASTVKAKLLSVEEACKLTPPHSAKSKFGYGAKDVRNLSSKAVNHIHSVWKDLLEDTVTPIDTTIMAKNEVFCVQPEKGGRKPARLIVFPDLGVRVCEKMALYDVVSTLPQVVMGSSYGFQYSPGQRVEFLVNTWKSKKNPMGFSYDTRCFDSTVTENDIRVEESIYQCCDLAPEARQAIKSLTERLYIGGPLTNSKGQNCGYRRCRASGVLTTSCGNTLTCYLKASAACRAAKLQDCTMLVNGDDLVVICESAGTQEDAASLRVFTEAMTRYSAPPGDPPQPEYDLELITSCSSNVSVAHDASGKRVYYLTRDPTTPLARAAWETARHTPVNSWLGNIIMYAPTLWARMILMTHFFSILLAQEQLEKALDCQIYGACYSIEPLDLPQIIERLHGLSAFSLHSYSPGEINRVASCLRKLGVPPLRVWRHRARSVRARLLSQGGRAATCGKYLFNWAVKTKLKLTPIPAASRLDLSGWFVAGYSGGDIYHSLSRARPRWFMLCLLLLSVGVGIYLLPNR
row,SMILES,IC50 [nM]
1,"CNC(=O)c1c(-c2ccc(F)cc2)oc2cc(N(CCOCCOCCOc3cccc(C(=O)O)c3)S(C)(=O)=O)c(C3CC3)cc12 [Compound 14-7B, 3-{2-[2-(2-{[5-Cyclopropyl-2-(4-fluoro-phenyl)-3-methylcarbamoyl-benzofuran-6-yl]-methanesulfonyl-amino}-ethoxy)-ethoxy]-ethoxy}-benzoic Acid]",100 to 1000
2,"CNC(=O)c1c(-c2ccc(F)cc2)oc2cc(N(CCOCCOCCOCCOCCOCCOCc3cccc(C(C)=O)c3)S(C)(=O)=O)c(C3CC3)cc12 [Compound 02-8E, 6-[(2-{2-[2-(2-{2-[2-(3-Acetyl-benzyloxy)-ethoxy]-ethoxy}-ethoxy)-ethoxy]-ethoxy}-ethyl)-methanesulfonyl-amino]-5-cyclopropyl-2-(4-fluoro-phenyl)-benzofuran-3-carboxylic Acid Methylamide]",> 1000
3,"CNC(=O)c1c(-c2ccc(F)cc2)oc2cc(N(CCOCCOCc3ccc(C(=O)OC)c([N+](=O)[O-])c3)S(C)(=O)=O)c(C3CC3)cc12 [Compound 29-7, 4-[2-(2-{[5-Cyclopropyl-2-(4-fluoro-phenyl)-3-methylcarbamoyl-benzofuran-6-yl]-methanesulfonyl-amino}-ethoxy)-ethoxymethyl]-2-nitro-benzoic Acid Methyl Ester]",100 to 1000
4,"CNC(=O)c1c(-c2ccc(F)cc2)oc2cc(N(CCOCCOCCOCCOCCOCc3ccc(C(=O)/C=C(\O)C(=O)O)cc3)S(C)(=O)=O)c(C3CC3)cc12 [Compound 02-10I, 4-{4-[2-(2-{2-[2-(2-{[5-Cyclopropyl-2-(4-fluoro-phenyl)-3-methylcarbamoyl-benzofuran-6-yl]-methanesulfonyl-amino}-ethoxy)-ethoxy]-ethoxy}-ethoxy)-ethoxymethyl]-phenyl}-2-hydroxy-4-oxo-but-2-enoic Acid]",> 1000
5,"CNC(=O)c1c(-c2ccc(F)cc2)oc2cc(N(CC(=O)NCC(=O)NCCCC(C)C(=O)O)S(C)(=O)=O)c(C3CC3)cc12 (centres unmarked) [Compound 10-4B, 5-[2-(2-{[5-Cyclopropyl-2-(4-fluoro-phenyl)-3-methylcarbamoyl-benzofuran-6-yl]-methanesulfonyl-amino}-acetylamino)-acetylamino]-2-methyl-pentanoic Acid]",> 1000
6,"CNC(=O)c1c(-c2ccc(F)cc2)oc2cc(N(CCOCCOCCOCCC(=O)O)S(C)(=O)=O)c(C3CC3)cc12 [Compound 24-4, 3-{2-[2-(2-{[5-Cyclopropyl-2-(4-fluoro-phenyl)-3-methylcarbamoyl-benzofuran-6-yl]-methanesulfonyl-amino}-ethoxy)-ethoxy]-ethoxy}-propionic Acid]",100 to 1000
7,"CCOC(=O)CCOCCOCCOCCN(c1cc2oc(-c3ccc(F)cc3)c(C(=O)NC)c2cc1C1CC1)S(C)(=O)=O [Compound 30-3, 3-{2-[2-(2-{[5-Cyclopropyl-2-(4-fluoro-phenyl)-3-methylcarbamoyl-benzofuran-6-yl]-methanesulfonyl-amino}-ethoxy)-ethoxy]-ethoxy}-propionic acid ethyl ester]",> 1000
8,"CNC(=O)c1c(-c2ccc(F)cc2)oc2cc(N(CCOCCOCCOCCOCCOCc3cccc(C(C)=O)c3)S(C)(=O)=O)c(C3CC3)cc12 [Compound 02-8D, 6-({2-[2-(2-{2-[2-(3-Acetyl-benzyloxy)-ethoxy]-ethoxy}-ethoxy)-ethoxy]-ethyl}-methanesulfonyl-amino)-5-cyclopropyl-2-(4-fluoro-phenyl)-benzofuran-3-carboxylic Acid Methylamide]",> 1000
9,"CNC(=O)c1c(-c2ccc(F)cc2)oc2cc(N(CCOCCCCCOCC(=O)O)S(C)(=O)=O)c(C3CC3)cc12 [Compound 27-9A, [5-(2-{[5-Cyclopropyl-2-(4-fluoro-phenyl)-3-methylcarbamoyl-benzofuran-6-yl]-methanesulfonyl-amino}-ethoxy)-pentyloxy]-acetic Acid]",100 to 1000
10,"CCOC(=O)C(OCCOCCOCCN(c1cc2oc(-c3ccc(F)cc3)c(C(=O)NC)c2cc1C1CC1)S(C)(=O)=O)c1ccccc1 (centres unmarked) [Compound 25-4, {2-[2-(2-{[5-Cyclopropyl-2-(4-fluoro-phenyl)-3-methylcarbamoyl-benzofuran-6-yl]-methanesulfonyl-amino}-ethoxy)-ethoxy]-ethoxy}-phenyl-acetic Acid Ethyl Ester]",> 1000
11,"CNC(=O)c1c(-c2ccc(F)cc2)oc2cc(N(CCOCCOCCOC3(C(=O)O)CCCC3)S(C)(=O)=O)c(C3CC3)cc12 [Compound 26-7A, 1-{2-[2-(2-{[5-Cyclopropyl-2-(4-fluoro-phenyl)-3-methylcarbamoyl-benzofuran-6-yl]-methanesulfonyl-amino}-ethoxy)-ethoxy]-ethoxy}-cyclopentanecarboxylic Acid]",< 100
12,"CNC(=O)c1c(-c2ccc(F)cc2)oc2cc(N(CCOCCOCCOC(C(=O)NO)c3ccccc3)S(C)(=O)=O)c(C3CC3)cc12 (centres unmarked) [Compound 25-6, 5-Cyclopropyl-2-(4-fluoro-phenyl)-6-[(2-{2-[2-(hydroxycarbamoyl-phenyl-methoxy)-ethoxy]-ethoxy}-ethyl)-methanesulfonyl-amino]-benzofuran-3-carboxylic Acid Methylamide]",> 1000
13,"CNC(=O)c1c(-c2ccc(F)cc2)oc2cc(N(CCOCCOCCc3ccc(C(=O)OC)cc3)S(C)(=O)=O)c(C3CC3)cc12 [Compound 11-5C, 4-{2-[2-(2-{[5-Cyclopropyl-2-(4-fluoro-phenyl)-3-methylcarbamoyl-benzofuran-6-yl]-methanesulfonyl-amino}-ethoxy)-ethoxy]-ethyl}-benzoic Acid Methyl Ester]",> 1000
14,"CNC(=O)c1c(-c2ccc(F)cc2)oc2cc(N(CCOCCOCCOCCOCc3ccc(C(C)=O)cc3)S(C)(=O)=O)c(C3CC3)cc12 [Compound 02-8H, 6-{[2-(2-{2-[2-(4-Acetyl-benzyloxy)-ethoxy]-ethoxy}-ethoxy)-ethyl]-methanesulfonyl-amino}-5-cyclopropyl-2-(4-fluoro-phenyl)-benzofuran-3-carboxylic Acid Methylamide]",> 1000
15,"CNC(=O)c1c(-c2ccc(F)cc2)oc2cc(N(CCOCCOCCOCC(N)=O)S(C)(=O)=O)c(C3CC3)cc12 [Compound 23-7A, 6-({2-[2-(2-Carbamoylmethoxy-ethoxy)-ethoxy]-ethyl}-methanesulfonyl-amino)-5-cyclopropyl-2-(4-fluoro-phenyl)-benzofuran-3-carboxylic Acid Methylamide]",100 to 1000
16,"CNC(=O)c1c(-c2ccc(F)cc2)oc2cc(N(CCOCCOCCOCc3ccc(C(=O)O)cc3)S(C)(=O)=O)c(C3CC3)cc12 [Compound 06-7E, 4-{2-[2-(2-{[5-Cyclopropyl-2-(4-fluoro-phenyl)-3-methylcarbamoyl-benzofuran-6-yl]-methanesulfonyl-amino}-ethoxy)-ethoxy]-ethoxymethyl}-benzoic Acid]",100 to 1000
17,"CNC(=O)c1c(-c2ccc(F)cc2)oc2cc(N(CCOCCOCCOCC(C)=O)S(C)(=O)=O)c(C3CC3)cc12 [Compound 30-1, 5-Cyclopropyl-2-(4-fluoro-phenyl)-6-[methanesulfonyl-(2-{2-[2-(2-oxo-propoxy)-ethoxy]-ethoxy}-ethyl)-amino]-benzofuran-3-carboxylic acid methylamide]",> 1000
18,CNC(=O)c1c(-c2ccc(F)cc2)oc2cc(N(CCOCCOCCOC3(C(=O)OC(C)(C)C)CCCC3)S(C)(=O)=O)c(C3CC3)cc12 [Compound 26-6A],> 1000
19,"CNC(=O)c1c(-c2ccc(F)cc2)oc2cc(N(CCCOCCCc3ccc(C(=O)OC)cc3)S(C)(=O)=O)c(C3CC3)cc12 [Compound 13-7B, 4-[3-(3-{[5-Cyclopropyl-2-(4-fluoro-phenyl)-3-methylcarbamoyl-benzofuran-6-yl]-methanesulfonyl-amino}-propoxy)-propyl]-benzoic Acid Methyl Ester]",100 to 1000
20,"CNC(=O)c1c(-c2ccc(F)cc2)oc2cc(N(CCOCCOCCOCCOCCOCCOCc3ccc(C(=O)O)cc3)S(C)(=O)=O)c(C3CC3)cc12 [Compound 30-13, 4-{2-[2-(2-{2-[2-(2-{[5-Cyclopropyl-2-(4-fluoro-phenyl)-3-methylcarbamoyl-benzofuran-6-yl]-methanesulfonyl-amino}-ethoxy)-ethoxy]-ethoxy}-ethoxy)-ethoxy]-ethoxymethyl}-benzoic acid]",> 1000
21,"CNC(=O)c1c(-c2ccc(F)cc2)oc2cc(N(CCOCCOCCOCCOCCOCc3ccc(C(C)=O)cc3)S(C)(=O)=O)c(C3CC3)cc12 [Compound 02-8I, 6-({2-[2-(2-{2-[2-(4-Acetyl-benzyloxy)-ethoxy]-ethoxy}-ethoxy)-ethoxy]-ethyl}-methanesulfonyl-amino)-5-cyclopropyl-2-(4-fluoro-phenyl)-benzofuran-3-carboxylic Acid Methylamide]",> 1000
22,"CCOC(=O)c1ccc(OCCOCCOCCN(c2cc3oc(-c4ccc(F)cc4)c(C(=O)NC)c3cc2C2CC2)S(C)(=O)=O)cc1 [Compound 14-6C, 4-{2-[2-(2-{[5-Cyclopropyl-2-(4-fluoro-phenyl)-3-methylcarbamoyl-benzofuran-6-yl]-methanesulfonyl-amino}-ethoxy)-ethoxy]-ethoxy}-benzoic Acid Ethyl Ester]",> 1000
23,"CNC(=O)c1c(-c2ccc(F)cc2)oc2cc(N(CCOCCOCCOCc3cccc(C(=O)/C=C(\O)C(=O)O)c3)S(C)(=O)=O)c(C3CC3)cc12 [Compound 02-10B, 4-(3-{2-[2-(2-{[5-Cyclopropyl-2-(4-fluoro-phenyl)-3-methylcarbamoyl-benzofuran-6-yl]-methanesulfonyl-amino}-ethoxy)-ethoxy]-ethoxymethyl}-phenyl)-2-hydroxy-4-oxo-but-2-enoic Acid]",> 1000
